Article PMC5607274, “An iterative compound screening contest method for identifying target protein inhibitors using the tyrosine-protein kinase Yes” (Scientific Reports, 2017)

target: T1, human recombinant Yes [a.a. 2–543 (end)] (Homo sapiens, UniProt P07947); assay: ADP-Glo kinase assay, inhibition rates of Yes phosphorylation activity (first and second screening); type: biochemical; conditions: first screening; mean of n = 4 wells; 10 μmol L−1 compound
T1 construct: human recombinant Yes [a.a; 2–543 (end)]; purchased BPS Bioscience 40488
How it was run: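 ADP-Glo luminescence measured inhibition of human recombinant Yes (a.a. 2–543) phosphorylation activity. In the first screen, each compound ran in 4 wells and inhibition rates were averaged. The second screen retested hits as compounds dissolved from fresh powder.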

T1 sequence (P07947 2-543): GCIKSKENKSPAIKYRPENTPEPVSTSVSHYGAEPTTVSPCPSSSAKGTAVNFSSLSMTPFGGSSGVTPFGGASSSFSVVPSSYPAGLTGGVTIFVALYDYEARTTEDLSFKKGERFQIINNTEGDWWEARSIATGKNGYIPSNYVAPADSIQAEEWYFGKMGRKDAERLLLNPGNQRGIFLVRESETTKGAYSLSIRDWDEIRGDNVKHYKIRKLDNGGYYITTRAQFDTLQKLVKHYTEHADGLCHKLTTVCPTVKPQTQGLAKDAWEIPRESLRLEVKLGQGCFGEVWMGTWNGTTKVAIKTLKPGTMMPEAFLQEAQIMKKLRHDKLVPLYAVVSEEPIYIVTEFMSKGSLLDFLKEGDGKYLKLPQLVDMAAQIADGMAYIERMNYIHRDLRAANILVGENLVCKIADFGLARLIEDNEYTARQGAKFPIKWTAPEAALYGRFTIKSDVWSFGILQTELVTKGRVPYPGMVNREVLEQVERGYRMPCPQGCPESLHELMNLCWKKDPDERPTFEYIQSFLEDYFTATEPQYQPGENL

SMILES	First screening IR (inhibition rate)
O=C(Nc1ccc2[nH]c(=O)[nH]c2c1)c1occc1-c1ccccc1 [Compound Z118811128]	19%
O=C(Nc1n[nH]c(-c2ccc(F)cc2)n1)c1csc2c1CCCC2 [Compound Z119708890]	-5%
Cc1ccc(-c2nc(NC(=O)c3ccc(F)cc3F)n[nH]2)cc1 [Compound Z119762582]	-5%
Cc1ccc2nc(-c3ccc(Nc4nnc(Cc5csc(C)n5)s4)cc3)sc2c1 [Compound Z119992430]	40%
CC(C(=O)N1CCN(S(=O)(=O)c2ccccc2)CC1)N1CCC(C(N)=O)CC1 (centres unmarked) [Compound Z123938232]	0%
Cc1c(C#N)c(NC(=O)CN2CCN(Cc3nc4ccccc4s3)CC2)n(CC2CCCO2)c1C (centres unmarked) [Compound Z125608446]	12%
O=C(CN1CCN(Cc2nc3scc(-c4ccc(F)cc4)c3c(=O)[nH]2)CC1)N1CCCCCC1 [Compound Z126042696]	22%
Cc1ccc(-c2c(C)sc3nc(CN4CCN(CC(=O)N5CCCCCC5)CC4)[nH]c(=O)c23)cc1 [Compound Z126044810]	-3%
Cc1c(C#N)c(NC(=O)CN2CCC(n3c(=O)[nH]c4ccccc43)CC2)n(Cc2ccco2)c1C [Compound Z126941634]	9%
COCCNC(=O)CN1CCN(c2nc(-c3cccnc3)nc3scc(-c4ccccc4)c23)CC1 [Compound Z128012326]	9%
CC(Nc1ccc([N+](=O)[O-])cc1[N+](=O)[O-])c1nnc2ccccn12 (centres unmarked) [Compound Z128086498]	-9%
COc1ccc(-c2csc3nc(C)nc(N4CCCN(CC(=O)NC(C)(C)C)CC4)c23)cc1OC [Compound Z128141646]	-7%
COc1ccc(OC)c2c1CN(c1nc(CN3CCOCC3)nc3sc(C)c(C)c13)CC2O (centres unmarked) [Compound Z128154998]	47%
Cc1c(C#N)c(NC(=O)CN2CCC(n3c(=O)[nH]c4ccccc43)CC2)n(Cc2cccs2)c1C [Compound Z130194258]	22%
CN(C1(C)CCS(=O)(=O)C1)S(=O)(=O)c1ccc(Cl)c(Cl)c1 (centres unmarked) [Compound Z131022412]	2%
Cc1ccc(S(=O)(=O)N(C)C2(C)CCS(=O)(=O)C2)cc1 (centres unmarked) [Compound Z131022526]	3%
CC1(C(=O)N2CCCc3cc(S(=O)(=O)N4CCCC4)ccc32)Cc2ccccc2C(=O)O1 (centres unmarked) [Compound Z131206652]	-1%
COc1ccc(Br)c(C(=O)NCc2ccc(-c3csc(C)n3)cc2)c1 [Compound Z131231284]	-17%
O=C(CCc1cnn(-c2ccccc2)c1)Nc1nc2c(s1)CCCC2 [Compound Z131246512]	-5%
CC1CCN(c2ccc(NC(C)C(=O)Nc3cccc([N+](=O)[O-])c3)cc2)CC1 (centres unmarked) [Compound Z132693290]	26%
CCN(C1CCS(=O)(=O)C1)S(C)(=O)=O (centres unmarked) [Compound Z133704180]	8%
CC(C)CN(C1CCS(=O)(=O)C1)S(C)(=O)=O (centres unmarked) [Compound Z133987698]	12%
Cl.Oc1ccc(O)c(-c2cc(-c3ccccc3Cl)c3cc(Cl)ccc3n2)c1 [Compound Z134829678]	25%

SMILES	First screening IR (inhibition rate)
Cc1ccc(OCCSCc2nc(N)nc(Nc3ccc(F)cc3)n2)cc1 [Compound Z135099694]	9%
CSc1ccc(CSCc2nc(N)nc(Nc3ccc(F)cc3)n2)cc1 [Compound Z135100070]	-6%
O=C1NC(c2ccc(OCc3cn4ccccc4n3)cc2)Nc2ccccc21 (centres unmarked) [Compound Z135163592]	6%
CCn1cc(C(=O)c2cc(Cl)ccc2O)cc1-c1nc2ccccc2c(=O)[nH]1 [Compound Z135358570]	7%
CC1(CCc2ccccc2)NC(=O)N(NC(=O)c2ccc(-n3cnc4ccccc43)cc2)C1=O (centres unmarked) [Compound Z136752996]	9%
Cc1ccn2cc(C(=O)NCCCn3nc(C)cc3C)nc2c1 [Compound Z137367324]	2%
CCn1c(CNc2ccc3c(C)cc(=O)oc3c2)nc2cc(S(=O)(=O)N3CCCCC3)ccc21 [Compound Z139671368]	-9%
NC(=O)C1CCN(C(=O)CNc2cc(Cl)ccc2Sc2ccc(F)cc2)CC1 [Compound Z140497072]	-9%
COc1ccccc1-c1nn(-c2ccccc2)cc1C(=O)N1CCN(CC(=O)N2CCCCC2)CC1 [Compound Z145138304]	15%
Cc1ccc(C(CN2CCOCC2)NC(=O)Cn2cnc3sc(-c4ccccc4)cc3c2=O)cc1 (centres unmarked) [Compound Z146866146]	6%
Cc1ccc(-c2csc3ncn(CC(=O)NC(CN4CCOCC4)c4ccccc4)c(=O)c23)cc1 (centres unmarked) [Compound Z146890674]	4%
Cc1noc(C)c1COc1cccc(C(=O)N2CCN(Cc3cc(=O)n4ccsc4n3)CC2)c1 [Compound Z147054608]	14%
O=C(NCCCOc1ccccc1F)c1ccc2nc[nH]c2c1 [Compound Z147064724]	0%
CC(C)n1ncc2c(C(=O)N3CCN(CC(=O)N4CCCCC4)CC3)cc(-c3ccccc3)nc21 [Compound Z147118228]	-5%
CCCCN(C1CCS(=O)(=O)C1)S(=O)(=O)c1ccc(Cl)c(Cl)c1 (centres unmarked) [Compound Z147580066]	30%
COc1ccc2c(c1)c(CC(=O)OCc1ncc(Cl)n1C)c(C)n2C(=O)c1ccc(Cl)cc1 [Compound Z148531038]	0%
Cc1ccc(S(=O)(=O)N(C)C2(C)CCS(=O)(=O)C2)cc1C (centres unmarked) [Compound Z150918412]	9%
CC(Sc1nnc(NCc2ccc(F)cc2)s1)C(=O)N1CCCCCC1 (centres unmarked) [Compound Z151845340]	33%
CCC(C)N(CC(=O)Nc1cccc(C)c1C)C(=O)COC(=O)c1cc(C(C)=O)cn1C (centres unmarked) [Compound Z152371002]	-9%
Cc1ccc(-n2c(C)nnc2SCC(=O)Nc2c(C#N)c(C)c(C)n2Cc2ccccc2)cc1 [Compound Z152755906]	5%
CCOC(=O)c1c(C)oc2ncn(Cc3cccc(F)c3F)c(=O)c12 [Compound Z154098858]	2%
CN1N=C(C(=O)N2CCN(S(=O)(=O)c3ccccc3C(F)(F)F)CC2)CCC1=O [Compound Z164780402]	7%
O=C1CCc2cc(C(=O)Nc3nnc(SCc4c(Cl)cccc4Cl)s3)ccc2N1 [Compound Z164941068]	-3%

SMILES	First screening IR (inhibition rate)
Cc1nc(-c2ccc(CNC(=O)Cc3cccc(F)c3)o2)cs1 [Compound Z164951688]	-7%
Cc1c(C(=O)N2CCN(C(=O)C3CCS(=O)(=O)C3)CC2)[nH]c2c1C(=O)CC(C)(C)C2 (centres unmarked) [Compound Z164965524]	25%
CC(=O)c1c[nH]c(C(=O)NCCc2ccc(-c3csc(C)n3)s2)c1 [Compound Z165050208]	3%
O=C(CN1CCN(c2cc(C(=O)N3CCOCC3)c3ccccc3n2)CC1)Nc1ccccc1Cl [Compound Z165229378]	39%
O=C(CN1CCN(c2nc(-c3ccccn3)nc3scc(-c4ccccc4)c23)CC1)N1CCCCC1 [Compound Z165261492]	13%
O=C(CN1CCN(c2nc(-c3cccnc3)nc3scc(-c4ccccc4)c23)CC1)N1CCCCC1 [Compound Z165261498]	9%
COc1ccc(C(N)=O)c(OCc2cc(C)cc(C)c2)c1 [Compound Z165885974]	4%
NC(=O)c1ccc(COC(=O)CCc2ccc3ccccc3n2)c([N+](=O)[O-])c1 [Compound Z166077836]	-4%
O=C(CCc1ccc2ccccc2n1)OCCOc1ccc(S(=O)(=O)N2CCOCC2)cc1 [Compound Z166077876]	-20%
CNc1snc(C)c1C(=O)OCc1csc(-c2ccc(F)cc2)n1 [Compound Z166256344]	-7%
NC(=O)CCN(C(=O)CSc1ncc2ccccn12)c1ccccc1 [Compound Z166362686]	55%
Cl.Oc1c(-c2ccccc2)nc2ccc(Cl)cc2c1-c1ccccc1 [Compound Z166605136]	8%
Cc1cc(C)cc(C(=O)N(c2cc(C)cc(C)c2)C2C=CS(=O)(=O)C2)c1 (centres unmarked) [Compound Z166605882]	34%
CC1CCC(NS(=O)(=O)c2ccc(N3CCCC(c4nnc5ccccn45)C3)c([N+](=O)[O-])c2)CC1 (centres unmarked) [Compound Z166704886]	5%
CCN(CC)S(=O)(=O)c1ccc(N2CCc3c(sc(N)c3C#N)C2)c([N+](=O)[O-])c1 [Compound Z166707558]	1%
O=C(CCc1ccc(S(=O)(=O)N2CCCC2)cc1)NCC(c1ccccc1Cl)N1CCCC1 (centres unmarked) [Compound Z166811416]	-3%
O=C(Cc1coc(-c2ccccc2)n1)Nc1ccc2ccccc2n1 [Compound Z167063860]	-6%
O=C(NCCCN1CCCCC1)c1cc(-c2ccccc2)nc2c1cnn2Cc1ccncc1 [Compound Z167254296]	-28%
COc1cc(C(=O)Nc2ccc3c(c2)NC(=O)C(C)O3)cc2c1OC(C)C2 (centres unmarked) [Compound Z167364352]	6%
Cc1cccc(OCCCNC(=O)c2ccc3nc[nH]c3c2)c1 [Compound Z168616264]	-4%
O=C(CCC1NC(=O)NC1=O)Nc1ccc(Oc2ccccc2Cl)cc1 (centres unmarked) [Compound Z168726218]	11%

same assay, conditions: second screening, dissolved from fresh powder; n = 4; 10 μmol L−1 compound

SMILES	Second screening IR (inhibition rate)
COc1ccc(OC)c2c1CN(c1nc(CN3CCOCC3)nc3sc(C)c(C)c13)CC2O (centres unmarked) [Compound Z128154998]	-4%
